Results from patent publication US11319324B2, “Pyrazolo-pyrrolo-pyrimidine-dione derivatives as P2X3 inhibitors” (Bayer Aktiengesellschaft, priority 2017, dated 2022).

How the values were obtained:
Type in all cases: cell-based
human P2X3 receptor [1] = target: T1, human P2X3 receptor (Homo sapiens, UniProt P56373); assay: Intracellular calcium measurement to assess antagonist activity at human P2X3 receptors (hP2X3 CHO), photina luminescence; set-up: expressed in transfected cells; host or cells: Chinese hamster ovary (CHO) cells; details: column 2), CHO cells, agonist α,β-methylene-ATP at EC50
T1 sequence (P56373 1-397): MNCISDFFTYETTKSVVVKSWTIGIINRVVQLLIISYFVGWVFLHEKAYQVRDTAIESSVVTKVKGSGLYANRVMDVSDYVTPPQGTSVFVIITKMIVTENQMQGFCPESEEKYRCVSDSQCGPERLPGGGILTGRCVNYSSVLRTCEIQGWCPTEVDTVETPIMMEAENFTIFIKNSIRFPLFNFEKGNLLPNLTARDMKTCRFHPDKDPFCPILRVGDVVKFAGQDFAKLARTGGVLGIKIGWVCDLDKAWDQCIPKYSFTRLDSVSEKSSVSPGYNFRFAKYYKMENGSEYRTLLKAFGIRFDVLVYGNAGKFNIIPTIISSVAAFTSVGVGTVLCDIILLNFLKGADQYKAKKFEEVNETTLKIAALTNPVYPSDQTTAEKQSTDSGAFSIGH
Outline: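 CHO cells stably expressing human P2X3 and mitochondrial photina, plated the day before at 30 °C, then loaded 3 h at 37 °C in 2 mM Ca-tyrode buffer with 5 μg/ml coelenterazine. Agonist-evoked calcium luminescence read immediately; inhibition seen as signal decrease.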

human P2X3 receptor [2] = target: T1, human P2X3 receptor; assay: Intracellular calcium measurement, antagonist activity at human P2X3 receptors (hP2X3 1321N1), Fluo8; set-up: expressed in transfected cells; host or cells: human astrocytoma 1321N1 (1312N1 [sic]); details: column 3); 1321N1 cells, human P2X3, Fluo8, agonist ATP at EC50
Description: 3) And 4) Intracellular Calcium Measurement to Compare Antagonist Activity at Human P2X3 Receptors (hP2X3 1321N1) and at Human P2X2/3 Receptors (hP2X23 1321N1)
The comparison of antagonistic activity at the P2X3 versus the P2X2/3 receptor of the compounds of the invention were performed by use of recombinant cell lines. These cell lines derived originally from the human astrocytoma cell line […] (Macintyre E H, Pontén J, Vatter A E. Acta Pathol Microbiol Scand A. 1972; 80(2):267-83). The cell lines are stably transfected with the human P2X3 receptor forming homotrimeric P2X3 receptors or are co-transfected with P2X2 and P2X3 forming heterotrimeric P2X2/3 receptors. Stimulation of the receptors with the agonist ATP leads to a conformational change of the receptors and influx of extracellular calcium ions through the open ion channel. The cytoplasmatic calcium transient is detected via the calcium sensitive dye Fluo8. The strength of Fluo8 fluorescence signal corresponds to the level of receptor activation. An inhibitor would decrease the signal depending on its potency and concentration. Fluorescence was measured by use of a suitable fluorescence reader.
On the day before the assay, the cells were plated in culture medium (DMEM high glucose, 10% FCS, 1% MEM non-essential amino acids, 4 mM Glutamax) in 384-well poly-D-lysine coated microtiter plates and kept in a cell incubator (96% humidity, 5% v/v CO2, 37° C.). On the day of the assay medium was exchanged by Fluo8 containing buffer and incubated for 60 minutes. Test compounds were added at various concentrations and plates were incubated for 10 minutes. In the fluorescence reader a 3 seconds baseline measurement was performed and the agonist ATP was applied at EC50 concentration of the respective receptor during constant fluorescence measurement for 120 seconds.

human P2X2/3 receptors = target: T2, human P2X2/3 receptors (Homo sapiens, UniProt P56373+Q9UBL9); assay: Intracellular calcium measurement, antagonist activity at human P2X2/3 receptors (hP2X23 1321N1), Fluo8; details: for IC50: column 4); 1321N1 cells, human P2X2/3, Fluo8, agonist ATP at EC50; read-out: 4) hP2X2/3 IC50 [nM] (1321N1); for hP2X23/hP2X3* Selectivity (1321N1): ratio of column 4) hP2X2/3 to column 3) hP2X3, 1321N1
T2 construct: expressed in transfected cells; host or cells: human astrocytoma 1321N1 (1312N1 [sic])
T2 sequence (P56373 1-397): T1 sequence (P56373 1-397)
T2 sequence (Q9UBL9 1-471): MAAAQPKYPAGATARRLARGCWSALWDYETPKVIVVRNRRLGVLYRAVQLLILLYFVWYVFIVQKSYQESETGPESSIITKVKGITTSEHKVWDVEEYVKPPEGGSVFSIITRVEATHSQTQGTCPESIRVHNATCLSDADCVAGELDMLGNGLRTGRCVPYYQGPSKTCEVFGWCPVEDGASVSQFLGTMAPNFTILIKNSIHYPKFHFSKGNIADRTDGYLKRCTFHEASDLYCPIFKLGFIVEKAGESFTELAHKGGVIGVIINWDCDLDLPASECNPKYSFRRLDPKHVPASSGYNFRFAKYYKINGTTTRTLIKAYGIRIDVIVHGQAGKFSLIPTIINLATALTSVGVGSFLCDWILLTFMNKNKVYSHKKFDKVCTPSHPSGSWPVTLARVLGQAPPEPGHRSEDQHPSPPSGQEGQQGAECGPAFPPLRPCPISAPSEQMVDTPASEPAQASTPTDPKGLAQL
Outline: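 Inhibition of ATP-triggered Ca2+ transients is measured in 1321N1 cells expressing P2X3 homotrimers or P2X2/3 heterotrimers.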

SMILES | IC50 (human P2X3 receptor [1]) [nM] | IC50 (human P2X3 receptor [2]) [nM] | IC50 (human P2X2/3 receptors) [nM] | hP2X23/hP2X3* Selectivity (1321N1) (human P2X2/3 receptors)
COC[C@H](C)N1Cc2c(n(CC(=O)Nc3ccc(F)cn3)c3cc(C4CC4)nn3c2=O)C1=O [Example 101] | 28 | 13 | 6950 | 535
CCc1cc2n(CC(=O)Nc3ccc(F)cn3)c3c(c(=O)n2n1)CN(CCN)C3=O [Example 245, 2-[6-(2-aminoethyl)-2-ethyl-5,8-dioxo-5,6,7,8-tetrahydro-4H-pyrazolo[1,5-a]pyrrolo[3,4-d]pyrimidin-4-yl]-N-(5-fluoropyridin-2-yl)acetamide] | 425 | 345 | > 21000 | >61
CCc1cc2n(CC(=O)Nc3ccc(F)cn3)c3c(c(=O)n2n1)CN(CC1CCNCC1)C3=O.Cl [Example 240] | 628 | 1270 | > 32000 | >25
CCc1cc2n(CC(=O)Nc3ccccn3)c3c(c(=O)n2n1)CN(C(C)C)C3=O [Example 64] | 430 | 433 | > 32000 | >74
CCc1cc2n(CC(=O)Nc3ccc(F)cn3)c3c(c(=O)n2n1)CN(C[C@@H]1CCCO1)C3=O [Example 279, 2-{2-ethyl-5,8-dioxo-6-[(2S)-tetrahydrofuran-2-ylmethyl]-5,6,7,8-tetrahydro-4H-pyrazolo[1,5-a]pyrrolo[3,4-d]pyrimidin-4-yl}-N-(5-fluoropyridin-2-yl)acetamide] | 210 | 270 | > 23000 | >85
CC(C)N1Cc2c(n(CC(=O)Nc3ccc(F)cn3)c3cc(C4CCOCC4)nn3c2=O)C1=O [Example 58] | 24 | 36 | 9850 | 277
CCc1cc2n(CC(=O)Nc3ccc(F)cn3)c3c(c(=O)n2n1)CN(C1CCNC1)C3=O (single isomer, unassigned) [Example 277, 2-{2-ethyl-5,8-dioxo-6-[pyrrolidin-3-yl]-5,6,7,8-tetrahydro-4H-pyrazolo[1,5-a]pyrrolo[3,4-d]-pyrimidin-4-yl}-N-(5-fluoropyridin-2-yl)acetamide] | 150 | 110 | 7300 | 66
O=C(Cn1c2c(c(=O)n3nc(Cl)cc13)CN(CCN1CCOCC1)C2=O)Nc1ccc(F)cn1 [Example 105] | 78 | 92 | > 32000 | >348
COC[C@H](C)N1Cc2c(n(CC(=O)Nc3ccc(F)cn3)c3cc(C(=O)N(C)CC4CC4)nn3c2=O)C1=O [Example 195] | 20 | 22 | 8900 | 399
CCc1cc2n(CC(=O)Nc3ccc(F)cn3)c3c(c(=O)n2n1)CN(CC(=O)NC(C)C)C3=O [Example 292] | 112 | 120 | > 32000 | >267
COC[C@H](C)N1Cc2c(n(CC(=O)Nc3ccc(F)cn3)c3cc(C(=O)NC4CC4)nn3c2=O)C1=O [Example 192] | 56 | 37 | > 19600 | >530
CCc1cc2n(CC(=O)Nc3ccc(F)cn3)c3c(c(=O)n2n1)CN(C1CCNC1)C3=O (single isomer, unassigned) [Example 278, 2-{2-ethyl-5,8-dioxo-6-[pyrrolidin-3-yl]-5,6,7,8-tetrahydro-4H-pyrazolo[1,5-a]pyrrolo[3,4-d]pyrimidin-4-yl}-N-(5-fluoropyridin-2-yl)acetamide] | 650 | 675 | > 32000 | >47
CC(C)N1Cc2c(n(CC(=O)Nc3ccc(F)cn3)c3cc(C4CCN(C(=O)OC(C)(C)C)CC4)nn3c2=O)C1=O [Example 227, tert-butyl 4-[4-{2-[(5-fluoropyridin-2-yl)amino]-2-oxoethyl}-5,8-dioxo-6-(propan-2-yl)-5,6,7,8-tetrahydro-4H-pyrazolo[1,5-a]pyrrolo[3,4-d]pyrimidin-2-yl]piperidine-1-carboxylate] | 24 | 71 | 9300 | 132

Further lines, results first:

IC50 (human P2X3 receptor [1]) [nM] | IC50 (human P2X3 receptor [2]) [nM] | IC50 (human P2X2/3 receptors) [nM] | hP2X23/hP2X3* Selectivity (1321N1) (human P2X2/3 receptors) | SMILES
22 | 33 | 8200 | 248 | CC(C)N1Cc2c(n(CC(=O)Nc3ccc(F)cn3)c3cc(NC(=O)c4cnn[nH]4)nn3c2=O)C1=O [Example 286]
26 | 54 | > 32000 | >593 | Cc1ccc(-c2cc3n(CC(=O)Nc4ccc(F)cn4)c4c(c(=O)n3n2)CN(C(C)C)C4=O)c(C)n1 [Example 157]
44 | 38 | 3950 | 105 | CC(C)N1Cc2c(n(CC(=O)Nc3ccc(F)cn3)c3cc(C(=O)Nc4ccccc4F)nn3c2=O)C1=O [Example 200]
110 | 323 | > 32000 | >99 | CC(=O)Nc1cc2n(CC(=O)Nc3ccc(F)cn3)c3c(c(=O)n2n1)CN(C(C)C)C3=O [Example 282, 2-[2-(acetylamino)-5,8-dioxo-6-(propan-2-yl)-5,6,7,8-tetrahydro-4H-pyrazolo[1,5-a]pyrrolo[3,4-d]pyrimidin-4-yl]-N-(5-fluoropyridin-2-yl)acetamide]
124 | 1850 | > 32000 | >17 | CC(C)N1Cc2c(n(CC(=O)Nc3ccc(F)cn3)c3cc(C(=O)NC(C)(C)C)nn3c2=O)C1=O [Example 186]
94 | 61 | 4800 | 79 | CC(C)N1Cc2c(n(CC(=O)Nc3ccc(F)cn3)c3cc(C(=O)NC4CC4)nn3c2=O)C1=O [Example 79]
30 | 29 | 11500 | 397 | COC[C@H](C)N1Cc2c(n(CC(=O)Nc3ccc(F)cn3)c3cc(N(C)C)nn3c2=O)C1=O [Example 177]
175 | 170 | > 32000 | >188 | CC(C)N1Cc2c(n(CC(=O)Nc3ccc(F)cn3)c3cc(N4CCOCC4)nn3c2=O)C1=O [Example 180, N-(5-fluoropyridin-2-yl)-2-[2-(morpholin-4-yl)-5,8-dioxo-6-(propan-2-yl)-5,6,7,8-tetrahydro-4H-pyrazolo[1,5-a]pyrrolo[3,4-d]pyrimidin-4-yl]acetamide]
17 | 9 | 2350 | 250 | CC(C)N1Cc2c(n(CC(=O)Nc3ccc(F)cn3)c3cc(NC4CCCC4)nn3c2=O)C1=O [Example 168]
